Source: PubChem BioAssay AID2060501 (Molecular Pharmacology Branch, DTP, NCI, 2025)

Tested on: 282377-053-R-J1-PDC complex spheroids, viability
Test: Anticancer human tumor 282377-053-R-J1-PDC patient-derived colon adenocarcinoma cell line growth inhibition [GQUAD]
Conditions: for IC50: curve of first compound; for viability, T/C: stronger effect = lower value
Description: DNA G-quadruplex Stabilizer Agents in Combinations in Complex Spheroids
A high-throughput screen of multi-cell type tumor spheroids was designed to identify active combinations of DNA G-quadruplex stabilizer agents and targeted small molecules. Complex spheroids include a stromal component modeled by human endothelial cells (HUVEC) and fibroblasts modeled by human mesenchymal stem cells (MSCs). The concentration ranges selected for each drug and investigational agent were based upon clinically achievable concentrations if the clinical Cmax of the agent was known.
Compounds. The drugs and investigational agents: pidnarulex (CX-5461; NSC782164), APTO-253 (NSC789042), BRACO-19 (NSC847499), peposertib (NSC802822), ceralasertib (NSC780249), elimusertib (NSC800525), camonsertib (NSC841442), AZD-1390 (NSC803789), olaparib (NSC753686), talazoparib (NSC767125), ART-558 (NSC835418), sotorasib (NSC818433), MRTX-1133 (NSC836407), SN-38 (NSC673596), topotecan (NSC609699), etoposide (NSC141540), doxorubicin (NSC123127), gemcitabine (NSC613327), 5-fluorouracil (NSC19893), paclitaxel (NSC125973), vemurafenib (NSC761431), panobinostat (NSC761190), R-306465 (JNJ-16241199; NSC773264), adavosertib (NSC754352), TP-3654 (NSC805149), carboplatin (NSC241240), KSQ-4279 (NSC840948), and staurosporine (NSC755774) were obtained from the National Cancer Institute (NCI) Developmental Therapeutics Program Chemical Repository (34). The FDA-approved anticancer drug set is available from the NCI Developmental Therapeutics Program. […] The stock solutions were prepared in dimethyl sulfoxide (DMSO, Sigma-Aldrich, St. Louis, MO, cat. D2650) at 800-fold the tested concentration and stored at -70 degrees C prior to their use. All drugs and investigational agents were tested over a range starting from a high concentration at or near the clinical Cmax and decreasing in half-log increments. If the clinical Cmax for an agent had not been determined, the highest concentration tested was 10 microM.
2.3 Cell Culture. All cells were maintained in an incubator at 37 degrees C and 5% CO2 with 95% humidity. The PDC lines were cultured according to standard operating procedures established by the NCI PDMR. All PDCs were thawed and cultured in Matrigel-coated flasks prepared with a working solution of 1X Ham's F-12 nutrient mix, without supplementation (Invitrogen, cat. 11765054), 100 U/mL penicillin-streptomycin (Invitrogen, cat. 15140122), and 2.5% Matrigel (Corning Inc., cat. 354248) for the first three passages. The 857933-349-R-J2-PDC line was cultured in 6C/Colon 1B media, which includes advanced DMEM/F-12 (Thermo Fisher Scientific, cat. 12634028), 10 mM HEPES (Thermo Fisher Scientific, cat. 15630080), 1X GlutaMAX supplement (Thermo Fisher Scientific, cat. 35050061), 0.1 mg/mL primocin (InvivoGen, cat. ant-pm-2), 10% defined fetal bovine serum, heat inactivated (HyClone Laboratories Inc., cat. SH30070.03HI), 50% L-WRN conditioned media (ATCC, cat. CRL-3276), 1.25 mM N-Acetyl-L-cysteine (Sigma-Aldrich, cat. A9165), 10 mM nicotinamide (Sigma-Aldrich, cat. N0636), 1X B-27 supplement (Thermo Fisher Scientific, cat. 17504044), 1X N-2 supplement (Thermo Fisher Scientific, cat. 17502048), 10 microM Y-27632 dihydrochloride (Tocris Bioscience, cat. 1254), and 50 ng/mL human EGF recombinant protein (Thermo Fisher Scientific, cat. PHG0311). The 485176-168-R4-J1-PDC line was cultured in Panc media, which includes all 6C/Colon 1B media components plus 100 ng/mL human FGF-10 (Thermo Fisher Scientific, cat. 100-26), 500 nM SB-431542 (Selleckchem, cat. S1067), and gastrin (Tocris, cat. 3006).
[…]

[1] = second compound 0.0316 µM, first compound 0.0316 µM
[2] = second compound 0.0316 µM, first compound 0.1 µM
[3] = second compound 0.0316 µM, first compound 0.316 µM
[4] = second compound 0.0316 µM, first compound 1 µM
[5] = second compound 0.0316 µM, first compound 3.16 µM
[6] = second compound 0.0316 µM, first compound 10 µM
[7] = second compound 0.1 µM, first compound 0.0316 µM
[8] = second compound 0.1 µM, first compound 0.1 µM
[9] = second compound 0.1 µM, first compound 0.316 µM
[10] = second compound 0.1 µM, first compound 1 µM
[11] = second compound 0.1 µM, first compound 3.16 µM
[12] = second compound 0.1 µM, first compound 10 µM
[13] = second compound 0.316 µM, first compound 0.0316 µM
[14] = second compound 0.316 µM, first compound 0.1 µM
[15] = second compound 0.316 µM, first compound 0.316 µM
[16] = second compound 0.316 µM, first compound 1 µM
[17] = second compound 0.316 µM, first compound 3.16 µM
[18] = second compound 0.316 µM, first compound 10 µM
[19] = second compound 1 µM, first compound 0.0316 µM
[20] = second compound 1 µM, first compound 0.1 µM
[21] = second compound 1 µM, first compound 0.316 µM
[22] = second compound 1 µM, first compound 1 µM
[23] = second compound 1 µM, first compound 3.16 µM
[24] = second compound 1 µM, first compound 10 µM
[25] = second compound 3.16 µM, first compound 0.0316 µM
[26] = second compound 3.16 µM, first compound 0.1 µM
[27] = second compound 3.16 µM, first compound 0.316 µM
[28] = second compound 3.16 µM, first compound 1 µM
[29] = second compound 3.16 µM, first compound 3.16 µM
[30] = second compound 3.16 µM, first compound 10 µM
[31] = second compound 10 µM, first compound 0.0316 µM
[32] = second compound 10 µM, first compound 0.1 µM
[33] = second compound 10 µM, first compound 0.316 µM
[34] = second compound 10 µM, first compound 1 µM
[35] = second compound 10 µM, first compound 3.16 µM
[36] = second compound 10 µM, first compound 10 µM
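Note: spheroids exposed to compounds for 7 days before readout.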
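Throughout, for viability, T/C: percent of vehicle DMSO control viability with 100% = untreated-like growth.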

**Q.** With CC1COCCN1c1cc(C2(S(C)(=N)=O)CC2)nc(-c2ccnc3[nH]ccc23)n1 (centres undefined) + CN(C)c1ccc(Nc2c3ccc(NC(=O)CCN4CCCC4)cc3nc3cc(NC(=O)CCN4CCCC4)ccc23)cc1 as the compound, how does the IC50 (second compound 0.0316 µM) read?
**A.** 8.45 µM

**Q.** And the IC50 (second compound 0.1 µM)?
**A.** 6.78 µM

**Q.** What about the IC50 (second compound 0.316 µM) of the same compound?
**A.** 6.09 µM

**Q.** What about the IC50 (second compound 1 µM) of the same compound?
**A.** > 10 µM

**Q.** What about the IC50 (second compound 3.16 µM) of the same compound?
**A.** > 10 µM

**Q.** What about the IC50 (second compound 10 µM) of the same compound?
**A.** > 10 µM

**Q.** What about the viability, T/C [1] of the same compound?
**A.** 102%

**Q.** And the viability, T/C [2]?
**A.** 90.3%

**Q.** What about the viability, T/C [3] of the same compound?
**A.** 73%

**Q.** What about the viability, T/C [4] of the same compound?
**A.** 79.6%

**Q.** And the viability, T/C [5]?
**A.** 67.8%

**Q.** What about the viability, T/C [6] of the same compound?
**A.** 42.2%

**Q.** And the viability, T/C [7]?
**A.** 95.1%

**Q.** What about the viability, T/C [8] of the same compound?
**A.** 77.2%

**Q.** What about the viability, T/C [9] of the same compound?
**A.** 81.2%

**Q.** What about the viability, T/C [10] of the same compound?
**A.** 76.5%

**Q.** And the viability, T/C [11]?
**A.** 69.3%

**Q.** And the viability, T/C [12]?
**A.** 40.5%

**Q.** And the viability, T/C [13]?
**A.** 85.5%

**Q.** And the viability, T/C [14]?
**A.** 83.3%

**Q.** And the viability, T/C [15]?
**A.** 74.4%

**Q.** And the viability, T/C [16]?
**A.** 76.2%

**Q.** And the viability, T/C [17]?
**A.** 61.8%

**Q.** What about the viability, T/C [18] of the same compound?
**A.** 40.8%

**Q.** What about the viability, T/C [19] of the same compound?
**A.** 89.8%

**Q.** And the viability, T/C [20]?
**A.** 83.7%

**Q.** What about the viability, T/C [21] of the same compound?
**A.** 94.2%

**Q.** What about the viability, T/C [22] of the same compound?
**A.** 67.6%

**Q.** And the viability, T/C [23]?
**A.** 58.8%

**Q.** What about the viability, T/C [24] of the same compound?
**A.** 46.2%

**Q.** What about the viability, T/C [25] of the same compound?
**A.** 86%

**Q.** And the viability, T/C [26]?
**A.** 89.2%

**Q.** And the viability, T/C [27]?
**A.** 86.3%

**Q.** What about the viability, T/C [28] of the same compound?
**A.** 68.5%

**Q.** And the viability, T/C [29]?
**A.** 64.4%

**Q.** What about the viability, T/C [30] of the same compound?
**A.** 49.6%

**Q.** What about the viability, T/C [31] of the same compound?
**A.** 82.7%

**Q.** And the viability, T/C [32]?
**A.** 88.4%

**Q.** What about the viability, T/C [33] of the same compound?
**A.** 116%

**Q.** What about the viability, T/C [34] of the same compound?
**A.** 59.7%

**Q.** What about the viability, T/C [35] of the same compound?
**A.** 80%

**Q.** And the viability, T/C [36]?
**A.** 56%

**Q.** How did the IC50 (second compound 0.0316 µM) turn out when COc1ccc([C@@H](O)c2cc(-c3ncnc4cc(N5CCOCC5)ccc34)c(F)cc2Cl)nn1 + CN(C)c1ccc(Nc2c3ccc(NC(=O)CCN4CCCC4)cc3nc3cc(NC(=O)CCN4CCCC4)ccc23)cc1 was run?
**A.** > 10 µM

**Q.** And the IC50 (second compound 0.1 µM)?
**A.** > 10 µM

**Q.** And the IC50 (second compound 0.316 µM)?
**A.** 9.44 µM

**Q.** And the IC50 (second compound 1 µM)?
**A.** > 10 µM

**Q.** What about the IC50 (second compound 3.16 µM) of the same compound?
**A.** > 10 µM

**Q.** What about the IC50 (second compound 10 µM) of the same compound?
**A.** > 10 µM

**Q.** What about the viability, T/C [1] of the same compound?
**A.** 96.4%

**Q.** What about the viability, T/C [2] of the same compound?
**A.** 92.5%

**Q.** What about the viability, T/C [3] of the same compound?
**A.** 80.6%

**Q.** What about the viability, T/C [4] of the same compound?
**A.** 71.3%

**Q.** What about the viability, T/C [5] of the same compound?
**A.** 81.7%

**Q.** And the viability, T/C [6]?
**A.** 64.9%

**Q.** And the viability, T/C [7]?
**A.** 89.2%

**Q.** What about the viability, T/C [8] of the same compound?
**A.** 75.3%

**Q.** What about the viability, T/C [9] of the same compound?
**A.** 95%

**Q.** And the viability, T/C [10]?
**A.** 72.8%

**Q.** And the viability, T/C [11]?
**A.** 86.2%

**Q.** And the viability, T/C [12]?
**A.** 60.1%

**Q.** What about the viability, T/C [13] of the same compound?
**A.** 89.1%

**Q.** And the viability, T/C [14]?
**A.** 81%

**Q.** What about the viability, T/C [15] of the same compound?
**A.** 76.4%

**Q.** What about the viability, T/C [16] of the same compound?
**A.** 78.2%

**Q.** And the viability, T/C [17]?
**A.** 82.1%

**Q.** What about the viability, T/C [18] of the same compound?
**A.** 48.3%

**Q.** And the viability, T/C [19]?
**A.** 81.2%

**Q.** What about the viability, T/C [20] of the same compound?
**A.** 83.2%

**Q.** And the viability, T/C [21]?
**A.** 97.6%

**Q.** And the viability, T/C [22]?
**A.** 62.4%

**Q.** What about the viability, T/C [23] of the same compound?
**A.** 77.4%

**Q.** What about the viability, T/C [24] of the same compound?
**A.** 66.6%

**Q.** What about the viability, T/C [25] of the same compound?
**A.** 87.3%

**Q.** And the viability, T/C [26]?
**A.** 83.8%

**Q.** And the viability, T/C [27]?
**A.** 81.2%

**Q.** What about the viability, T/C [28] of the same compound?
**A.** 85%

**Q.** What about the viability, T/C [29] of the same compound?
**A.** 102%

**Q.** What about the viability, T/C [30] of the same compound?
**A.** 61.3%

**Q.** And the viability, T/C [31]?
**A.** 89.3%

**Q.** What about the viability, T/C [32] of the same compound?
**A.** 72.6%

**Q.** And the viability, T/C [33]?
**A.** 90.1%

**Q.** What about the viability, T/C [34] of the same compound?
**A.** 74.5%

**Q.** And the viability, T/C [35]?
**A.** 76.4%

**Q.** What about the viability, T/C [36] of the same compound?
**A.** 79.4%
